Assays:
Assay type in all cases: cell-based, human
BxPc-3 cells = assay: BxPc-3 cell growth inhibition test (MTT assay); conditions: growth inhibition at 2000 nM, 70 h
Method: BxPc-3 Cell Growth Inhibition Test (MTT Assay)
Cell strains: BxPC-3 (human pancreatic cancer cell strains); MTT; antitumor compounds; DMSO.
(§1) II. Reagents and Consumable Materials
(§2) Culture medium: 90% RPMI-1640+10% FBS; Pancreatin (0.25% (w/v) solution was formulated with PBS, 0.53 mM of EDTA was added in the formulation); PBS; 96-well culture plate.
(§3) 1. A plate (10 cm) of cells in logarithmic growth phase that were normally cultured was collected;
(§4) 2. The culture solution was sucked out. The plate was washed with 5 mL of PBS once or twice;
(§5) 3. PBS was sucked out. 1.5 mL of 0.25% pancreatin was added to infiltrate the cells;
4. The culture plate was placed in an incubator. Digestion was carried out for about 8 min at 37° C.;
(§6) 5. 4.5 mL of complete culture solution was added to the culture plate to stop the digestion. The cells were carefully scoured with micropipette (1 ml) to give a uniform cell suspension. The suspension was implanted into a 96-well cell culture disc by 5000 cells/100 μL per well. The culture plate was incubated overnight under 5% CO2 at 37° C. In day 2, 100 μL of culture solution comprising a compound was added in each well. The plate was further incubated for 70 h under 5% CO2 at 37° C.;
(§7) 6. The culture solution was sucked out;
(§8) 7. 100 μL of serum-free culture solution containing 0.5 mg/mL MTT was added in each well. The plate was incubated for 3 h;
(§9) 8. The culture solution was carefully sucked out;
(§10) 9. 100 μL of DMSO was added into each well and vibrated to dissolve;
(§11) 10. OD values were determined at 490 nM.
(§12) IV. Results and Treatments
(§13) 1. Calculation of Relative Inhibition Ratio The inhibition ratio of a compound on cell growth=(PC−n)/(PC−NC)×100%
(§14) PC: OD values of cells after normal growth in control wells without a compound;
(§15) n: OD values of cells after growth in test wells with a compound;
(§16) NC: Background OD values of blank wells without a compound and cells.

22Rv1 cells = assay: 22Rv1 cell growth inhibition test (SRB assay); conditions: growth inhibition at 222 nM, 73 h
Method: 22Rv1 Cell Growth Inhibition Test (SRB Assay)
Cell strains: 22Rv1 (human prostate cancer cell strains); SRB: 0.4% (w/v) working solution was formulated with 1% glacial acetic acid, reserved at 4° C.; antitumor compounds; DMSO.
as §1, §2, §3, §4
(§17) 3. 1.5 mL of 0.25% pancreatin was added to the plate to infiltrate the cells;
(§18) 4. The pancreatin was sucked out. The culture plate was placed in an incubator. Digestion was carried out for about 3 min at 37° C.;
as §6, with “4” for “4.5”, “uniform single” for “uniform”, “plate” for “disc”, “7000” for “5000”, “73” for “70”
(§19) 6. The culture solution was sucked out. 100 uL of TCA fixed cells which were diluted to 10% were added to each well. The plate was kept in a refrigerator for 1 h at 4° C.
(§20) 7. TCA stationary liquid was sucked out. Each well was washed with 150 μL of ddH2O five times;
(§21) 8. After the stationary liquid was cleansed, the plate was dried in the air at the room temperature;
(§22) 9. 60 μL of SRB staining solution was added in each well. The well was stained for 15 min at the room temperature;
(§23) 10. The SRB staining solution was sucked out. Each well was washed with 150 μL of 1% glacial acetic acid five times;
(§24) 11. After the SRB staining solution was cleansed, the plate was dried in the air at the room temperature;
(§25) 12. 100 μL of 10 mM Tris was added in each well. The plate was vibrated to dissolve out SRB;
(§26) 13. OD values were determined at 570 nM.
as §12, §13, §14, §15, §16

MDA-MB-453 cells = assay: MDA-MB-453 cell growth inhibition test (SRB assay); conditions: growth inhibition at 2000 nM, 69.5 h
Method: MDA-MB-453 Cell Growth Inhibition Test (SRB Assay)
Cell strains: MDA-MB-453 (human breast cancer cell strains); SRB: 0.4% (w/v) working solution was formulated with 1% glacial acetic acid, reserved at 4° C.; antitumor compounds; DMSO.
as §1
Culture medium: 90% L15+10% FBS; pancreatin (0.25% (w/v) solution was formulated with PBS, 0.53 mM of EDTA was added in the formulation); PBS; 96-well culture plate.
as §3, §4, §17, §18
as §6, with “4” for “4.5”, “uniform single” for “uniform”, “plate” for “disc”, “7000” for “5000”, “well.” for “well. The plate was further incubated for 70 h under 5% CO2 at 37° C.;”
The plate was further incubated for 69.5 h under 5% CO2 at 37° C.;
as §19, §20, §21, §22, §23, §24, §25, §26, §12, §13, §14, §15, §16

SK-OV-3 cells = assay: SK-OV-3 cell growth inhibition test (MTT assay); conditions: growth inhibition at 667 nM, 69 h
Method: SK-OV-3 Cell Growth Inhibition Test (MTT Assay)
Cell strains: SK-OV-3 (human ovarian cancer cell strains); MTT; antitumor compounds; DMSO.
as §1
Culture medium: 90% McCoy's 5A+10% FBS; Pancreatin (0.25% (w/v) solution was formulated with PBS, 0.53 mM of EDTA was added in the formulation); PBS; 96-well culture plate.
as §3, §4, §5
4. The pancreatin was sucked out. The culture plate was placed in an incubator. Digestion was carried out for about 5 min at 37° C.;
as §6, with “4000” for “5000”, “69” for “70”
as §7, §8, §9
9. 100 μL of DMSO was added in each well and vibrated to dissolve;
as §11, §12, §13, §14, §15, §16

NCI-H446 cells = assay: NCI-H446 cell growth inhibition test (MTT assay); conditions: growth inhibition at 222 nM, 70 h
Method: NCI-H446 Cell Growth Inhibition Test (MTT Assay)
Cell strains: NCI-H446 (human small cell lung cancer cell strains); MTT; antitumor compounds; DMSO.
as §1, §2, §3, §4, §5
4. The culture plate was placed in an incubator. Digestion was carried out for about 3 min at 37° C.;
as §6, with “3” for “4.5”, “4000” for “5000”
as §7, §8, §9, §10, §11, §12, §13, §14, §15, §16

Row | SMILES | Inhibition Ratio (%) (BxPc-3 cells) | Inhibition Ratio (%) (22Rv1 cells) | Inhibition Ratio (%) (MDA-MB-453 cells) | Inhibition Ratio (%) (SK-OV-3 cells) | Inhibition Ratio (%) (NCI-H446 cells)
1 | COc1cccc2c1C(=O)c1c(O)c3c(c(O)c1C2=O)CC(O)(C(=O)COC(=O)CCC(=O)N(CCO)CCO)CC3OC1CC(n2cccc2)C(O)C(C)O1 (stereo not shown) [Example 64] | 83.7 | 54.8 | 73.5 | 65.9 | 51.6
2 | COc1cccc2c1C(=O)c1c(O)c3c(c(O)c1C2=O)CC(O)(C(=O)COC(=O)CCC(=O)NN1CCN(C)CC1)CC3OC1CC(n2cccc2)C(O)C(C)O1 (stereo not shown) [Example 14] | 81.8 | 52.1 | 74.4 | 53.6 | 
3 | COc1cccc2c1C(=O)c1c(O)c3c(c(O)c1C2=O)CC(O)(C(=O)COC(=O)CCC(=O)N1CCN(CCCN(C)C)CC1)CC3OC1CC(n2cccc2)C(O)C(C)O1 (stereo not shown) [Example 44] | 78.5 | 48.5 | 68.5 | 52.3 | 46.3
4 | COc1cccc2c1C(=O)c1c(O)c3c(c(O)c1C2=O)CC(O)(C(=O)COC(=O)CCC(=O)NCCOCCOCCOCCO)CC3O[C@H]1C[C@H](n2cccc2)[C@H](O)[C@H](C)O1 (stereo partly drawn) [Example 1, 10-((3′-(pyrrol-1-yl)-2′,3′,6′-trideoxy-alphal-l-lyxo-hexylpyranyl)oxy)-7,8,9,10-tetrahydro-6,8,11-trihydroxy-13-oxo-14-(4-(2-(2-(2-(2-hydroxyethoxy)ethoxy)ethoxy)ethylamino)-4-oxo-butyrato)-1-methoxy-5,12-naphthalenedione] | 82.5 | 52.2 | 77.7 | 57.3 | 43.2
5 | CCN1CCN(C(=O)CCC(=O)OCC(=O)C2(O)Cc3c(O)c4c(c(O)c3C(OC3CC(n5cccc5)C(O)C(C)O3)C2)C(=O)c2c(OC)cccc2C4=O)CC1 (stereo not shown) [Example 40] | 76.5 | 50.5 | 73 | 47.9 | 49
6 | COc1cccc2c1C(=O)c1c(O)c3c(c(O)c1C2=O)CC(O)(C(=O)COC(=O)CCC(=O)Nc1ccncc1)CC3OC1CC(n2cccc2)C(O)C(C)O1 (stereo not shown) [Example 22] | 82 | 56.3 | 71.1 | 60.3 | 62.1
7 | COc1cccc2c1C(=O)c1c(O)c3c(c(O)c1C2=O)CC(O)(C(=O)COC(=O)CCC(=O)Nc1ccc(N2CCOCC2)nc1)CC3OC1CC(n2cccc2)C(O)C(C)O1 (stereo not shown) [Example 20] | 84.1 | 60.9 | 82.4 | 62.6 | 68
8 | COc1cccc2c1C(=O)c1c(O)c3c(c(O)c1C2=O)CC(O)(C(=O)COC(=O)CCC(=O)NCCCN1CCOCC1)CC3OC1CC(n2cccc2)C(O)C(C)O1 (stereo not shown) [Example 12] | 74.9 | 53.3 | 73.7 | 48.8 | 54.6
9 | COc1cccc2c1C(=O)c1c(O)c3c(c(O)c1C2=O)CC(O)(C(=O)COC(=O)CCC(=O)NCc1ccncc1)CC3OC1CC(n2cccc2)C(O)C(C)O1 (stereo not shown) [Example 26] | 82.7 | 60.8 | 79.9 | 67.6 | 66.9
10 | COc1cccc2c1C(=O)c1c(O)c3c(c(O)c1C2=O)CC(O)(C(=O)COC(=O)CCC(=O)NCc1ccccn1)CC3OC1CC(n2cccc2)C(O)C(C)O1 (stereo not shown) [Example 30] | 85.2 | 62.3 | 79.9 | 59.9 | 61
11 | COc1cccc2c1C(=O)c1c(O)c3c(c(O)c1C2=O)CC(O)(C(=O)COC(=O)CCC(=O)NCCc1ccncc1)CC3OC1CC(n2cccc2)C(O)C(C)O1 (stereo not shown) [Example 32] | 83.4 | 61.7 | 78.3 | 59.7 | 59.3
12 | COc1cccc2c1C(=O)c1c(O)c3c(c(O)c1C2=O)CC(O)(C(=O)COC(=O)CCCC(=O)NCCc1ccccn1)CC3OC1CC(n2cccc2)C(O)C(C)O1 (stereo not shown) [Example 35] | 81.3 | 58.5 | 77.1 | 57.8 | 57.2
13 | COc1cccc2c1C(=O)c1c(O)c3c(c(O)c1C2=O)CC(O)(C(=O)COC(=O)CCC(N)=O)CC3OC1CC(n2cccc2)C(O)C(C)O1 (stereo not shown) [Example 66] | 83.1 | 59 | 73.9 | 66.5 | 56.2
14 | COc1cccc2c1C(=O)c1c(O)c3c(c(O)c1C2=O)CC(O)(C(=O)COC(=O)CCC(=O)NCCCN1CCCC1)CC3OC1CC(n2cccc2)C(O)C(C)O1 (stereo not shown) [Example 18] | 70.7 |  |  | 47.4 | 
15 | COc1cccc2c1C(=O)c1c(O)c3c(c(O)c1C2=O)CC(O)(C(=O)COC(=O)CCC(=O)NS(=O)(=O)c1ccccc1)CC3OC1CC(n2cccc2)C(O)C(C)O1 (stereo not shown) [Example 95] | 80.6 | 51.3 | 68.2 | 66.3 | 

Source: patent US9670242B2, “Tetracyclic anthraquinone derivatives” (Tianjin Hemay Bio-Tech Co., Ltd, priority 2012, dated 2017)
